Laboratory results taken from patent US20120136416A1, “Caged Neuropeptides: modulation and measurement of synapse and signaling activity; and methods for drug evaluation, pharmaceuticals preparation and treatment” (PRESIDENT AND FELLOWS OF HARVARD COLLEGE, priority 2010, published 2012).

How the values were obtained:
[1] = test system: locus coeruleus (LC) neurons; test: Whole-cell recordings from locus coeruleus neurons in acute brain slices, local perfusion or UV uncaging; format: cell-based, rat
[2] = molecular target: human kappa opioid receptors (OPRK1) (Homo sapiens, UniProt P41145); format: cell-based
Sequence of human kappa opioid receptors (OPRK1) (P41145 whole entry, looked up): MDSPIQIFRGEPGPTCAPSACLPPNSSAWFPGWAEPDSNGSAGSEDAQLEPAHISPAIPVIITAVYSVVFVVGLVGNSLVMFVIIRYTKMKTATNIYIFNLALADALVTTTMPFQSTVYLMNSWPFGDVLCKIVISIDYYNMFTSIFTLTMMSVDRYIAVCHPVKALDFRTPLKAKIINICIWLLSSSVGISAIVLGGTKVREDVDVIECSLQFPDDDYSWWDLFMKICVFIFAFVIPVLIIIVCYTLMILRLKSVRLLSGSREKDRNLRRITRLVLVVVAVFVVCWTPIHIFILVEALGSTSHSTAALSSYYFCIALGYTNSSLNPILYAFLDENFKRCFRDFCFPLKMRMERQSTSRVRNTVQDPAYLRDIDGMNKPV

[3] = test system: CA1 region of the hippocampus; test: Extracellular field potential recordings (population spike) in acute hippocampal slices, UV uncaging; format: cell-based, mice
Experimental: Preliminary electrophysiological evaluation was carried out in transverse hippocampal slices from P15-18 mice and focused on inhibitory neurons, the predominant cells expressing Mu and Delta opioid receptors in the CA1 region. Initial neurophysiological evaluations were carried out in acute hippocampal slices from P24-30 mice. […] Extracellular field potential recordings reveal this as an increase in the population spike (pSpike) amplitude in response to Schaeffer collateral stimulation at 0.1 Hz. […] These experiments confirmed that photolysis in living tissue elicits a physiological response.

Molecule: Nc1ccncc1 [4-AP]
- effect on residual Ba^2+-insensitive outward current [1]: unable to block or occlude

Molecule: [Ba+2].[Cl-].[Cl-] [Ba^2+, BaCl2]
- outward current blocked [1]: 80%

Molecule: [Cl][Cd][Cl] [Cd^2+, CdCl2]
- effect on residual Ba^2+-insensitive outward current [1]: unable to block or occlude

Molecule: CC(C)C[C@H](NC(=O)[C@H](Cc1ccccc1)NC(=O)CNC(=O)CNC(=O)[C@@H](N)Cc1ccc(O)cc1)C(=O)O [L-Enk, Leu-Enkephalin]
- activation of kappa receptors [2]: did not activate

Molecule: CC1(C)[C@@H](OC(=O)CCC(=O)O)CC[C@]2(C)[C@H]3C(=O)C=C4[C@@H]5C[C@@](C)(C(=O)O)CC[C@]5(C)CC[C@@]4(C)[C@]3(C)CC[C@@H]12 [carbenoxolone]
- effect on responses to the uncaging stimuli ([1]; 100 uM, n=10 cells): not significantly attenuated

Molecule: C=CCN1CC[C@]23c4c5ccc(O)c4O[C@H]2C(=O)CC[C@@]3(O)[C@H]1C5 [naloxone]
- effect on light-evoked outward current ([1]; 2 μM, uncaging of 10 μM CYLE): blocked
- effect on light-evoked pSpike increases [3]: blocked

Molecule: ZD7288
- effect on residual Ba^2+-insensitive outward current [1]: unable to block or occlude
